The source of these data is patent US8084484B2, “Vanilloid receptor ligands, pharmaceutical compositions containing them, process for making them, and use thereof for treating pain and other conditions” (Gruenenthal GmbH, priority 2007, dated 2011).

Structures are written as SMILES.

One experiment deals with male mice (NMRI). Nature of the experiment: Formaldehyde test in mice. In kind it is in vivo. Conditions: 0.3 per os (dose unit not given), second phase. Here is the method: III. b. Formaldehyde Test in Mice
The investigation for determining the antinociceptive action of the compounds according to the invention is performed using the formaldehyde test on male mice (NMRI, 20 to 30 g body weight, Iffa, Credo, Belgium).
In the formaldehyde test, according to D. Dubuisson et al., Pain 1977, 4, 161-174 a distinction is drawn between the first (early) phase (0 to 15 minutes after the formaldehyde injection) and the second (late) phase (15 to 60 minutes after the formaldehyde injection). […]
Then, the nociceptive behaviour of the animals is observed and recorded continuously for an investigation period of three minutes in the second (late) phase of the formaldehyde test (21 to 24 minutes after the formaldehyde injection). Quantification of the pain behaviour proceeds by summation of the seconds in which the animals licked and bit the relevant paw during the investigation period.
The comparison is made in each case with control animals, which, instead of compounds according to the invention, received vehicle (0.9% aqueous sodium chloride soln.) before administration of the formaldehyde. On the basis of the quantification of the pain behaviour, the substance effect in the formaldehyde test is determined in percent as a change compared with the corresponding control. […]

Another experiment addresses VR1/TRPV1 receptor (Homo sapiens, UniProt Q8NER1). Kind of experiment: Inhibition of human VR1/TRPV1 following pH-stimulus. The format is cell-based. The following applies: ne = no effect, no response observed.
Experiment [1] has as its target T1, vanilloid receptor (VR1), human VR1 gene (Homo sapiens, UniProt Q8NER1).
T1 construct: expressed in transfected cells; host or cells: CHO K1 cells (ECACC), stably transfected
Nature of the experiment: FLIPR Ca2+ influx assay on CHO K1 cells transfected with the VR1 gene, capsaicin stimulus (Pharmacological method II). In kind it is cell-based. The following applies: human, Ki by Cheng-Prusoff, ne = no effect, no response observed. On the procedure:
In addition, compounds according to the invention of the general formulae I, Ia, Ib, Ic, and Id, may be preferred which in the FLIPR assay with CHO K1 cells, which have been transfected with the human VR1 gene, in a concentration of less than 2000 nM, preferably of less than 1000 nM, particularly preferably of less than 300 nM, very particularly preferably of less than 100 nM, still more preferably of less than 75 nM, further preferably of less than 50 nM and most preferably of less than 10 nM, bring about a 50 percent displacement of capsaicin, which is present in a concentration of 100 nM. In this FLIPR assay, the influx of Ca^2+ is quantified with the assistance of a Ca^2+-sensitive dye (type Fluo-4, Molecular Probes Europe BV, Leiden, Netherlands) in a Fluorescent Imaging Plate Reader (FLIPR, Molecular Devices, Sunnyvale, USA) as described below.
II. Functional Investigations on Vanilloid Receptor (VR1)
The agonistic or antagonistic action of the substances to be investigated on the vanilloid receptor (VR1) may also be determined with the following assay. According to this assay, the influx of Ca^2+ through the channel is quantified with the assistance of a Ca^2+-sensitive dye (type Fluo-4, Molecular Probes Europe BV, Leiden, Netherlands) in a Fluorescent Imaging Plate Reader (FLIPR, Molecular Devices, Sunnyvale, USA).
Chinese hamster ovary cells (CHO K1 cells, European Collection of Cell Cultures (ECACC), Great Britain) are stably transfected with the VR1 gene. For functional investigations, these cells are plated out onto poly-D-lysine-coated, black 96-hole plates with a clear base (BD Biosciences, Heidelberg, Germany) at a density of 25,000 cells/hole. The cells are incubated overnight at 37° C. and 5% CO2 in a culture medium (Ham's Nutrient Mixture F12, 10 vol. % FCS (foetal calf serum), 18 μg/mL L-proline). On the following day, the cells are incubated with Fluo-4 (Fluo-4 2 μM, Pluronic F127 0.01 vol. %, Molecular Probes in HBSS (Hank's buffered saline solution), Gibco Invitrogen GmbH, Karlsruhe, Germany) for 30 minutes at 37° C. The plates are then washed 3 times with HBSS buffer and, after a further 15 minutes' incubation at room temperature, used for Ca^2+ measurement in the FLIPR. Ca^2+-dependent fluorescence is here measured before and after the addition of the substances to be investigated (wavelength λex=488 nm, λem=540 nm).
Quantification proceeds by measuring the highest fluorescence intensity (FC, fluorescence counts) over time.
The FLIPR protocol consists of 2 additions of substance. The substances to be tested (10 μM) are firstly pipetted onto the cells and Ca^2+ influx is compared with the control (capsaicin 10 μM) (% activation relative to the Ca^2+ signal after addition of 10 μM of capsaicin). After 5 minutes' incubation, 100 nM of capsaicin are added and the influx of Ca^2+ is likewise determined.
The percentage inhibition in comparison with the maximum achievable inhibition with 10 μM capsaicin is calculated.
On the basis of the percentage displacement by different concentrations of the compounds to be tested of the general formula I, IC50 inhibition concentrations which bring about 50% displacement of capsaicin were calculated. Ki values for the test substances were obtained by conversion using the Cheng-Prusoff equation (Cheng, Prusoff; Biochem. Pharmacol. 22, 3099-3108, 1973).

Experiment [2] has as its target T2, vanilloid receptor 1 (VR1/TRPV1) of the rat species (Rattus norvegicus, UniProt O35433).
T2 construct: The spinal column is removed from decapitated rats; endogenous in cells; host or cells: primary cells dissociated from rat dorsal root ganglia, cultured 2-3 days with NGF
Nature of the experiment: FLIPR Ca2+ influx assay on rat dorsal root ganglia cells, capsaicin stimulus (Pharmacological method I). In kind it is cell-based. Conditions: Ki by Cheng-Prusoff. From the text: I. Functional Investigation on Vanilloid Receptor 1 (VR1/TRPV1 Receptor)
The agonistic or antagonistic action of the substances to be investigated on the vanilloid receptor 1 (VR1/TRPV1) of the rat species may be determined with the following assay. According to this assay, the influx of Ca^2+ through the receptor channel is quantified with the assistance of a Ca^2+-sensitive dye (type Fluo-4, Molecular Probes Europe BV, Leiden, Netherlands) in a Fluorescent Imaging Plate Reader (FLIPR, Molecular Devices, Sunnyvale, USA).
Complete medium: 50 mL HAMS F12 Nutrient Mixture (Gibco Invitrogen GmbH, Karlsruhe, Germany) with 10 vol. % FCS (foetal calf serum, Gibco Invitrogen GmbH, Karlsruhe, Germany, heat-inactivated); 2 mM L-glutamine (Sigma, Munich, Germany); 1 wt. % AA solution (antibiotic/antimycotic solution, PAA, Pasching, Austria) and 25 ng/ml NGF medium (2.5 S, Gibco Invitrogen GmbH, Karlsruhe, Germany)
Cell culture plate: poly-D-lysine-coated, black 96-hole plates with clear base (96 well black/clear plate, BD Biosciences, Heidelberg, Germany) are additionally coated with laminin (Gibco Invitrogen GmbH, Karlsruhe, Germany), by diluting laminin to a concentration of 100 μg/mL with PBS (Ca—Mg-free PBS, Gibco Invitrogen GmbH, Karlsruhe, Germany). Aliquots with a concentration of 100 μg/mL of laminin are taken and stored at −20° C. The aliquots are diluted with PBS in the ratio of 1:10 to 10 μg/mL of laminin and 50 μL of the solution is pipetted into each well of the cell culture plate. The cell culture plates are incubated for at least two hours at 37° C., the supernatant solution is aspirated and the wells are each washed twice with PBS. […]
The spinal column is removed from decapitated rats and this is placed directly in cold HBSS buffer (Hank's buffered saline solution, Gibco Invitrogen GmbH, Karlsruhe, Germany), i.e. located in an ice bath, combined with 1 vol. % (percent by volume) of an AA solution (antibiotic/antimycotic solution, PAA, Pasching, Austria). […] The resultant pellet is in each case redissolved in 250 μL of complete medium and the cell count is determined. […]

T2 sequence (O35433 whole entry): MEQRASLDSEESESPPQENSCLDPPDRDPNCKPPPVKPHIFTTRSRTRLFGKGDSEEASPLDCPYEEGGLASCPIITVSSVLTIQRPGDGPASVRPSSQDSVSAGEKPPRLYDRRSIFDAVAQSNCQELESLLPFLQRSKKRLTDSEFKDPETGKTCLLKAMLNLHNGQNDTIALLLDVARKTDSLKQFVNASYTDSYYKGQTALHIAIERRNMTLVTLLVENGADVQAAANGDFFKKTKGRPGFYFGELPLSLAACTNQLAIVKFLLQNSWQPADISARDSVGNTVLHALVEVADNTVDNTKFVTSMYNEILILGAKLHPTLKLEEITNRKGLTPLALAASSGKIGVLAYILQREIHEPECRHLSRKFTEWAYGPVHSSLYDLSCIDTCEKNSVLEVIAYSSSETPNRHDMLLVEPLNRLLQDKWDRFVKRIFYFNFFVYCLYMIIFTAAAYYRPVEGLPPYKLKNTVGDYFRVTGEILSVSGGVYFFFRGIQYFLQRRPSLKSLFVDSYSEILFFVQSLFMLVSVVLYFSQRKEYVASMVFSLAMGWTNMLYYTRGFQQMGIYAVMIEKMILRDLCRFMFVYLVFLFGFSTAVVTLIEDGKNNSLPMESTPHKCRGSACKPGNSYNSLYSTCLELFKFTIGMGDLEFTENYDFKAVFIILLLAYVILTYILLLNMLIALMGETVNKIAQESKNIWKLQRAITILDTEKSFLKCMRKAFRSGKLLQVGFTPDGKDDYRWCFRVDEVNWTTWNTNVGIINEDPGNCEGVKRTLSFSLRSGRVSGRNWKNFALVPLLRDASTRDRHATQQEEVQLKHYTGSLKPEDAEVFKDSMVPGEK
Sequence of VR1/TRPV1 receptor (Q8NER1 whole entry): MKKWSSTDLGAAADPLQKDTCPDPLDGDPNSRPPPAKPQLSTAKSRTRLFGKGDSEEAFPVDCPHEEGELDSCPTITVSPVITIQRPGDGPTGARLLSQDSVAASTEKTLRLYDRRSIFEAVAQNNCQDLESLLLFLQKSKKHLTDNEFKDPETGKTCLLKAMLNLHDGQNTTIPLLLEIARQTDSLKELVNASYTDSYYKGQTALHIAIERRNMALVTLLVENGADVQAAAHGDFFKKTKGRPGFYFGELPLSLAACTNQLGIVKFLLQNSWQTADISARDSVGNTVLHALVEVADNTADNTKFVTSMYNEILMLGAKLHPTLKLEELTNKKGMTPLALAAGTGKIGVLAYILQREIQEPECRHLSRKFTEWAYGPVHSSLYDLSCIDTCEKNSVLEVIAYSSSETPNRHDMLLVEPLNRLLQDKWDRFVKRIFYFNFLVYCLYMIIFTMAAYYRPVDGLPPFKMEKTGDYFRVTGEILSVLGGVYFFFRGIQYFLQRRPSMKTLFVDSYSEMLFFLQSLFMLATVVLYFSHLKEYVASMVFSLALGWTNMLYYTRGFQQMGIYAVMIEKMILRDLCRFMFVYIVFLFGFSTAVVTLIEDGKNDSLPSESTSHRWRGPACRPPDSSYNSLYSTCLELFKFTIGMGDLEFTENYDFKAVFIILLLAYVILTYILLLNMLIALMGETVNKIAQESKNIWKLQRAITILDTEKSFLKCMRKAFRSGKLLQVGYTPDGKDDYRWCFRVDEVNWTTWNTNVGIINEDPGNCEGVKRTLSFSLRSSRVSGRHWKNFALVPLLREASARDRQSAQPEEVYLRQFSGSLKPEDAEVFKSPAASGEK
T1 sequence (Q8NER1 whole entry): as above

On to `CC1CCN(c2nc(C(F)(F)F)ccc2CNC(=O)C(C)c2ccc3[nH]cnc3c2)CC1` (stereo not drawn) [Example 13, 2-(1H-benzoimidazol-5-yl)-N-(4-methyl-6′-trifluoromethyl-3,4,5,6-tetrahydro-2H-[1,2′]bipyridinyl-3′-ylmethyl)-propionamide], for which, in the experiment with male mice (NMRI), the “Inhibition Formaldehyde test” value stood at 0.3 per os 25%. For the same compound, at VR1/TRPV1 receptor, the “IC50 (Human) following pH-stimulus” value is reported as “Ne”. Also, the inhibition constant Ki (as a rule, the equilibrium dissociation constant of an inhibitor or competing ligand from its target) in experiment [1] was found to be 7 nM.
For `CCCCOc1nc(C(C)(C)C)ccc1CNC(=O)C(C)c1ccc2[nH]cnc2c1` (stereo not drawn) [Example 23, 2-(1H-benzoimidazol-5-yl)-N-(2-butoxy-6-tert.-butyl-pyridin-3-ylmethyl)-propionamide], the “Inhibition Formaldehyde test” value with male mice (NMRI) is recorded as 0.3 per os 13%. Also, the “IC50 (Human) following pH-stimulus” value against VR1/TRPV1 receptor was “Ne”. The affinity in experiment [1], expressed as Ki, was 15.3 nM.
For the compound `CC1CCN(c2nc(C(F)(F)F)ccc2CNC(=O)Cc2ccc3c(c2)OCCO3)CC1` [Example 58, 2-(2,3-dihydrobenzo[b][1,4]dioxin-6-yl)-N-((2-(4-methylpiperidin-1-yl)-6-(trifluoromethyl)pyridin-3-yl)methyl)acetamide], the Ki in experiment [2] worked out at 60 nM; in experiment [1], 27.8 nM. Moreover, the “IC50 (Human) following pH-stimulus” value against VR1/TRPV1 receptor is listed as “ne”.
Turning to `O=C(Cc1ccc2c(c1)OCCO2)NCc1ccc(C(F)(F)F)nc1SC1CCCCC1` [Example 59, N-((2-(cyclohexylthio)-6-(trifluoromethyl)pyridin-3-yl)methyl)-2-(2,3-dihydrobenzo[b][1,4]dioxin-6-yl)acetamide], the results for the Ki in experiment [2] and in experiment [1] were 5.7 nM and 3.5 nM, respectively. The “IC50 (Human) following pH-stimulus” value against VR1/TRPV1 receptor is recorded as “ne”.
In the same order, the values of `CC1CCN(c2nc(C(F)(F)F)ccc2CNC(=O)C(C)c2ccc3c(c2)OCO3)CC1` (stereo not drawn) [Example 60, 2-(benzo[d][1,3]dioxol-5-yl)-N-((2-(4-methylpiperidin-1-yl)-6-(trifluoromethyl)pyridin-3-yl)methyl)propanamide] are 45.8 nM, 26 nM and “ne”.
